Results: patent US12435038B2 (KUNMING SINOWAY NATURAL PHARMACEUTICALS CO., LTD., priority 2019, dated 2025)

Assays:
[1] = Powder properties of amlodipine mesylate monohydrate crystals (particle size distribution, carr index, angle of repose, bulk density); type: physicochemical; conditions: API crystals
Source text: The Carr index and angle of repose are indications of the flowability of a powdery material. To a certain extent, the Carr index is an indication of the compressibility of a powdery material. Carr index=(tap density-bulk density)/tap density*100%.
The angle of repose (α) refers to the maximum angle formed between the free inclined plane and the horizontal plane in a powder piled layer. The smaller the angle of repose (α) is, the better the flowability is. It is generally believed that the powder can flow freely if the a is less than 30°, and the flowability of the power is acceptable if the a is between 30° and 40°, while the power may have poor flowability if the a is greater than 40°.
The particle size of crystals can be measured by a Malvern Lazer Particle Analyzer which is a dry method. The particle size is related to the fluidity of a powder, and generally the larger the particle size is and the more concentrated the particle distribution is, the better the fluidity is. During the crystallization process, an average particle size (D50) of less than 15 μm may lead to difficulty in filtration and drying and easy to carry and absorb more impurities. Furthermore, the uniformity of particle size distribution can also have an impact on the properties of APIs.
(§1) Determination of other parameters of API or tablets of amlodipine mesylate monohydrate regarding quality such as water content, angle of repose, carr index, particle size, bulk density, and the like, is conduct with conventional methods well known to those skilled in the art.

[2] = Accelerated test of the API (sealed in aluminum-plastic composite film bags, 40° C., 75% RH); type: physicochemical; conditions: mesylate monohydrate
Source text: as §1

[3] = cited from earlier work

| Molecule | particle size distribution D10 [1] | particle size distribution D50 [1] | particle size distribution D90 [1] | Average particle size ([2]; 0 month) | Bulk density ([2]; 0 month) | Carr index ([2]; 0 month) | Character ([2]; 0 month) | Content ([2]; 0 month) | Related substance ([2]; 0 month) | Water content ([2]; 0 month) | Average particle size ([2]; 3 months) | Bulk density ([2]; 3 months) | Carr index ([2]; 3 months) | Content ([2]; 3 months) | Related substance ([2]; 3 months) | Water content ([2]; 3 months) | Average particle size ([2]; 6 months) | Bulk density ([2]; 6 months) | Carr index ([2]; 6 months) | Character ([2]; 6 months) | also measured |
| --- | --- | --- | --- | --- | --- | --- | --- | --- | --- | --- | --- | --- | --- | --- | --- | --- | --- | --- | --- | --- | --- |
| amlodipine mesylate monohydrate [Experimental Example 1] | 43 μm | 92 μm | 151 μm | – | – | – | – | – | – | – | – | – | – | – | – | – | – | – | – | – | – |
| amlodipine mesylate monohydrate [Experimental Example 3] | 34 μm | 69 μm | 120 μm | – | – | – | – | – | – | – | – | – | – | – | – | – | – | – | – | – | – |
| amlodipine mesylate monohydrate [Example 2] | 34.8 μm | 72.1 μm | 126 μm | 72.1 μm | 0.33 g/mL | 23% | White solid | 99.95% | 0.06% | 3.51% | 71.8 μm | 0.32 g/mL | 24% | 99.81% | 0.07% | 3.52% | 72.4 μm | 0.32 g/mL | 24% | White solid | Character ([2]; 3 months): White solid; Content ([2]; 6 months): 99.73%; Related substance ([2]; 6 months): 0.08%; Water content ([2]; 6 months): 3.49%; Bulk density [1]: 0.33 g/mL; Carr index [1]: 23%; angle of repose [1]: 31 °; fluidity (words, from carr index and angle of repose) [1]: good fluidity |
| amlodipine mesylate monohydrate [Example 3] | 32.9 μm | 70.1 μm | 124 μm | 70.1 μm | 0.30 g/mL | 24% | White solid | 99.93% | 0.07% | 3.50% | 69.5 μm | 0.31 g/mL | 23% | 99.82% | 0.08% | 3.48% | 71.4 μm | 0.32 g/mL | 25% | White solid | Character ([2]; 3 months): White solid; Content ([2]; 6 months): 99.71%; Related substance ([2]; 6 months): 0.10%; Water content ([2]; 6 months): 3.49%; Bulk density [1]: 0.30 g/mL; Carr index [1]: 24%; angle of repose [1]: 33 °; fluidity (words, from carr index and angle of repose) [1]: good fluidity |
| amlodipine mesylate monohydrate | – | – | – | – | – | – | – | – | – | – | – | – | – | – | – | – | – | – | – | – | water solubility [3]: easily soluble in water; solubility relative to that of amlodipine besylate ([3]; in water): more than 10 time |
| amlodipine mesylate monohydrate [Experimental Example 2] | 32 μm | 68 μm | 117 μm | – | – | – | – | – | – | – | – | – | – | – | – | – | – | – | – | – | – |
| CCOC(=O)C1=C(COCCN)NC(C)=C(C(=O)OC)C1c1ccccc1Cl (stereo not shown) [Amlodipine free base, Amlodipine] | – | – | – | – | – | – | – | – | – | – | – | – | – | – | – | – | – | – | – | – | water solubility [3]: poor water solubility |
| amlodipine mesylate monohydrate [Comparative Example 2, reference compound] | 1.62 μm | 6.22 μm | 14.1 μm | 6.22 μm | 0.26 g/mL | 42% | White like | 99.82% | 0.11% | 3.57% | 5.89 μm | 0.27 g/mL | 41% | 99.71% | 0.18% | 3.52% | 6.74 μm | 0.25 g/mL | 44% | Yellow solid | Character ([2]; 3 months): Light yellow; Content ([2]; 6 months): 99.62%; Related substance ([2]; 6 months): 0.26%; Water content ([2]; 6 months): 3.53%; Bulk density [1]: 0.26 g/mL; Carr index [1]: 42%; angle of repose [1]: 45 °; fluidity (words, from carr index and angle of repose) [1]: poor fluidity |
| amlodipine mesylate monohydrate [Example 1] | 33.9 μm | 70.2 μm | 121 μm | 70.2 μm | 0.32 g/mL | 23% | White solid | 99.92% | 0.07% | 3.51% | 70.6 μm | 0.31 g/mL | 23% | 99.78% | 0.07% | 3.49% | 69.5 μm | 0.33 g/mL | 24% | White solid | Character ([2]; 3 months): White solid; Content ([2]; 6 months): 99.71%; Related substance ([2]; 6 months): 0.08%; Water content ([2]; 6 months): 3.50%; Bulk density [1]: 0.32 g/mL; Carr index [1]: 23%; angle of repose [1]: 29 °; fluidity (words, from carr index and angle of repose) [1]: good fluidity |
| amlodipine mesylate monohydrate [Comparative Example 1, reference compound] | 1.73 μm | 6.70 μm | 16.4 μm | 6.70 μm | 0.22 g/mL | 41% | White like | 99.89% | 0.12% | 3.49% | 5.96 μm | 0.25 g/mL | 42% | 99.81% | 0.18% | 3.48% | 6.93 μm | 0.26 g/mL | 43% | Yellow | Content ([2]; 6 months): 99.71%; Related substance ([2]; 6 months): 0.23%; Water content ([2]; 6 months): 3.51%; Bulk density [1]: 0.22 g/mL; Carr index [1]: 41%; angle of repose [1]: 46 °; fluidity (words, from carr index and angle of repose) [1]: poor fluidity |
